Results on 9 compounds are retold here after patent publication US4720495A, “Benzo[ij]quinolizine-2-carboxylic acids useful for treating bacterial infection” (priority 1985, dated 1988).

Data set [1] has as its system Escherichia coli NIHJ JC-2. Put plainly: minimal inhibitory concentration, in vitro antibacterial activity. It counts as cell-based. The conditions noted are these: NIHJJC2, 37° C., 20 hours. As to the method:
(§1) The in vitro antibacterial activities of typical examples of the present compounds [I] were evaluated in terms of the minimal inhibitory concentration defined as the lowest concentration of the compound preventing the bacterial growth. The Gram-positive bacteria used as test microorganisms included Bacillus subtilis, Staphylococcus aureus and Streptococcus faecalis, and the Gram-negative bacteria used as test microorganisms included Escherichia coli, Enterobacter cloacae, Klebsiella pneumoniae, Proteus vulgaris, Pseudomonas aeruginosa, Serratia marcescens and Salmonella enteritidis. The minimal inhibitory concentration (cultured at 37° C. for 20 hours) was determined according to the standard method prescribed by the Japan Society of Chemotherapy (CHEMOTHERAPY, Vol. 29, No. 1, p. 76, 1981). The following compounds were used as typical examples of the present compounds [I]. At the end of the chemical name of each compound, its tentative designation is given in Parentheses.
(§2) For purposes of comparison, the in vitro antibacterial activities of ofloxacin, OPC-7241 and compound α were evaluated according to the same method as described above and the test results thus obtained are also shown in Table 1.

Data set [2] relates to Salmonella enteritidis G14. The description is as above. The conditions noted are these: Salmonella enterica, 37° C., 20 hours. It counts as cell-based. How it is done: as §1, §2
Data set [3] relates to Klebsiella pneumoniae PCI 602. The data set is described as above. It counts as cell-based. Particulars: PCI602, 37° C., 20 hours. As to the method:
as §1, §2

In data set [4] the test system is Serratia marcescens IAM 1184. The data set is described as above. It counts as cell-based. The conditions noted are these: IAM1184, 37° C., 20 hours. As to the method:
as §1, §2

Data set [5] relates to Staphylococcus aureus FDA 209P JC-1. The data set is described as above. The class given is cell-based. Particulars: FDA209P, 37° C., 20 hours. As to the method:
as §1, §2

Another data set relates to Escherichia coli CI-304. The description is as above. The class given is cell-based. The conditions noted are these: CI304, 37° C., 20 hours. How it is done: as §1, §2
Data set [6] relates to Pseudomonas aeruginosa NCTC 10490. Described as above. It counts as cell-based. The conditions noted are these: NCTC10490, 37° C., 20 hours. As to the method:
as §1, §2

Data set [7] concerns Bacillus subtilis ATCC 6633. The description is as above. It counts as cell-based. The conditions noted are these: ATCC6633, 37° C., 20 hours. How it is done:
as §1, §2

Data set [8] has as its system Proteus vulgaris ATCC 13315. Described as above. Particulars: ATCC13315, 37° C., 20 hours. The class given is cell-based. As to the method: as §1, §2
The subject of data set [9] is Streptococcus faecalis AHU 1085. The data set is described as above. It counts as cell-based. Particulars: Enterococcus faecalis, AHU1085, 37° C., 20 hours. How it is done: as §1, §2
A further data set deals with Enterobacter cloacae 963. The data set is described as above. Particulars: 37° C., 20 hours. It counts as cell-based. How it is done:
as §1, §2

Data set [10] in a line: enteral absorbability, serum concentration after oral administration to mice. The class given is in vivo. The conditions noted are these: mouse, 50 mg/kg orally, fasted male ICR mice; for concentration at 0.5 h: 30 min. As to the method: Using male ICR mice fasted overnight (weighing 20±1 g), the enteral absorbability of some typical examples of the present compounds [I] was tested. This test was carried out by administering 50 mg/kg of each test compound orally to mice and determining its serum concentration 30 minutes, 1 hour, 2 hours and 4 hours after administration. Five mice were used for each test point. At each test point, whole blood was collected from the mice by cardiac puncture and used to prepare serum samples. Concentrations of the test compounds in serum samples were determined by the paper disc method using Escherichia coli CI-304 as the test microorganism.
For purposes of comparison, the enteral absorbability of ofloxacin and OPC-7241 was tested in the same manner as described above and the results thus obtained are also shown in Table 2.

Values after ≈ are worked out from the molar mass of the structure shown.

For the compound `CC1CN(c2c(F)cc3c(=O)c(C(=O)O)cn4c3c2C(=O)CC4C)CCN1C.Cl.O` (stereo not shown) [Compound 38, 9-fluoro-5-methyl-8-(3,4-dimethyl-1-piperazinyl)-6,7-dihydro-1,7-dioxo-1H,5H-benzo[ij]quinolizine-2-carboxylic acid hydrochloride monohydrate], the MIC came out at 0.2 µg/mL in data set [1]; 0.78 µg/mL in [2]; 0.1 µg/mL in [3]; 1.56 µg/mL in [4]; 0.78 µg/mL in data set [5]; 0.1 µg/mL with Escherichia coli CI-304. The MIC in data set [6] was 1.56 µg/mL; in [7] it was 0.1 µg/mL; in [8], 0.1 µg/mL; in data set [9] it was 0.78 µg/mL; with Enterobacter cloacae 963, 0.2 µg/mL. In [10], the concentration at 0.5 h stood at 26700 ng/mL. In [10], this compound gave a concentration at 1 h of 24100 ng/mL. Further, the concentration at 2 h in data set [10] stood at 13500 ng/mL. The same compound displayed a concentration at 4 h in data set [10] of 9000 ng/mL.

Take `CC1CN(c2c(F)cc3c(=O)c(C(=O)O)cn4c3c2C(=O)CC4C)CC(C)N1` (stereo not shown) [Compound 11, 9-Fluoro-5-methyl-8-(3,5-dimethyl-1-piperazinyl) -6,7-dihydro-1,7-dioxo-1H, 5H-benzo[ij]quinolizine-2-carboxylic acid]: the MIC in data set [1] came to 0.2 µg/mL (≈ 0.516 µM); in data set [2], 0.78 µg/mL (≈ 2.01 µM); in data set [3] it was 0.1 µg/mL (≈ 0.258 µM); in [4], 3.13 µg/mL (≈ 8.08 µM); in data set [5], 0.78 µg/mL (≈ 2.01 µM); with Escherichia coli CI-304, 0.1 µg/mL (≈ 0.258 µM). For the same compound, the minimum inhibitory concentration (MIC) in data set [6] came out at 1.56 µg/mL (≈ 4.03 µM); in data set [7], 0.1 µg/mL (≈ 0.258 µM); in [8] it was 0.39 µg/mL (≈ 1.01 µM); in data set [9], 3.13 µg/mL (≈ 8.08 µM); in the data set on Enterobacter cloacae 963 it was 0.2 µg/mL (≈ 0.516 µM). Further, in data set [10], the concentration at 0.5 h was 20800 ng/mL. Also, in data set [10], the concentration at 1 h was found to be 15800 ng/mL. For the same compound, the concentration at 2 h in data set [10] worked out at 7200 ng/mL. In addition, in data set [10], the concentration at 4 h turned out to be 5300 ng/mL.

Take `CC1CN(c2c(Cl)cc3c(=O)c(C(=O)O)cn4c3c2C=CC4C)CCN1` (stereo not shown) [Compound 31, 9-Chloro-5-methyl-8-(3-methyl-1-piperazinyl) -1-oxo-1H, 5H-benzo[ij]quinolizine-2-carboxylic acid]: the minimal inhibitory concentration (MIC) turned out to be 0.1 µg/mL (≈ 0.267 µM) in data set [1]; 1.56 µg/mL (≈ 4.17 µM) in [2]; 0.1 µg/mL (≈ 0.267 µM) in [3]; 1.56 µg/mL (≈ 4.17 µM) in data set [4]; 0.2 µg/mL (≈ 0.535 µM) in data set [5]; 0.2 µg/mL (≈ 0.535 µM) in the data set on Escherichia coli CI-304. For the same compound, the MIC in data set [6] came to 1.56 µg/mL (≈ 4.17 µM); in data set [7], 0.2 µg/mL (≈ 0.535 µM); in [8], 0.1 µg/mL (≈ 0.267 µM); in [9], 0.78 µg/mL (≈ 2.09 µM); against Enterobacter cloacae 963 it was 0.2 µg/mL (≈ 0.535 µM). In data set [10], this compound registered a concentration at 0.5 h of 13800 ng/mL. For the same compound, in [10], the concentration at 1 h amounted to 12700 ng/mL. Moreover, in [10], the concentration at 2 h is 8400 ng/mL. This compound also came in with a concentration at 4 h in data set [10] of 5000 ng/mL.

For `CC1CC(=O)c2c(N3CCN(C)CC3)c(F)cc3c(=O)c(C(=O)O)cn1c23.Cl.O` (stereo not shown) [Compound 35, 9-Fluoro-5-methyl-8-(4-methyl-1-piperazinyl) -6,7-dihydro-1,7-dioxo-1H, 5H-benzo[ij]quinolizine-2-carboxylic acid hydrochloride monohydrate], the MIC was 0.2 µg/mL in data set [1]; 0.78 µg/mL in data set [2]; 0.1 µg/mL in data set [3]; 1.56 µg/mL in data set [4]; 0.39 µg/mL in [5]; 0.1 µg/mL against Escherichia coli CI-304. The MIC was 0.78 µg/mL in data set [6]; 0.1 µg/mL in data set [7]; 0.2 µg/mL in [8]; 0.78 µg/mL in [9]; 0.2 µg/mL in the data set with Enterobacter cloacae 963. In data set [10], this compound registered a concentration at 0.5 h of 24500 ng/mL. Also, the concentration at 1 h in data set [10] came to 22000 ng/mL. The compound also had a concentration at 2 h in data set [10] of 11800 ng/mL. In addition, in [10], the concentration at 4 h worked out at 8500 ng/mL.

Consider `CC1C=Cc2c(N3CCN(C)CC3)c(F)cc3c(=O)c(C(=O)O)cn1c23` (stereo not shown) [Compound 19, 9-Fluoro-5-methyl-8-(4-methyl-1-piperazinyl) -1-oxo-1H, 5H-benzo[ij]quinolizine-2-carboxylic acid], for which the MIC in data set [1] amounted to 0.39 µg/mL (≈ 1.09 µM); in [2], 0.78 µg/mL (≈ 2.18 µM); in data set [3] it was 0.1 µg/mL (≈ 0.28 µM); in [4], 1.56 µg/mL (≈ 4.37 µM); in data set [5], 0.39 µg/mL (≈ 1.09 µM); in the data set with Escherichia coli CI-304, 0.2 µg/mL (≈ 0.56 µM). Also, the MIC in data set [6] was 0.78 µg/mL (≈ 2.18 µM); in data set [7], 0.1 µg/mL (≈ 0.28 µM); in data set [8], 0.1 µg/mL (≈ 0.28 µM); in data set [9], 1.56 µg/mL (≈ 4.37 µM); with Enterobacter cloacae 963, 0.78 µg/mL (≈ 2.18 µM).

As to `CC1C=Cc2c(N3CCNCC3)c(Cl)cc3c(=O)c(C(=O)O)cn1c23` (stereo not shown) [Compound 22, 9-Chloro-5-methyl-8-(1-piperazinyl) -1-oxo-1H, 5H-benzo[ij]quinolizine-2-carboxylic acid], the MIC in [1] amounted to 0.2 µg/mL (≈ 0.556 µM); in [2] it was 0.78 µg/mL (≈ 2.17 µM); in [3], 0.1 µg/mL (≈ 0.278 µM); in [4], 0.78 µg/mL (≈ 2.17 µM); in data set [5], 0.2 µg/mL (≈ 0.556 µM); in the data set on Escherichia coli CI-304, 0.1 µg/mL (≈ 0.278 µM). The MIC in [6] is 0.78 µg/mL (≈ 2.17 µM); in [7] it was 0.1 µg/mL (≈ 0.278 µM); in data set [8], 0.1 µg/mL (≈ 0.278 µM); in data set [9], 0.78 µg/mL (≈ 2.17 µM); in the data set with Enterobacter cloacae 963, 0.2 µg/mL (≈ 0.556 µM).

Regarding `CC1CC(=O)c2c(N3CCN(C)CC3)c(Cl)cc3c(=O)c(C(=O)O)cn1c23` (stereo not shown) [Compound 7, 9-Chloro-5-methyl-8-(4-methyl-1-piperazinyl)-6,7-dihydro-1,7-dioxo-1H, 5H-benzo[ij]quinolizine-2-carboxylic acid], the MIC amounted to 0.1 µg/mL (≈ 0.257 µM) in [1]; 0.78 µg/mL (≈ 2 µM) in [2]; 0.1 µg/mL (≈ 0.257 µM) in data set [3]; 3.13 µg/mL (≈ 8.03 µM) in [4]; 0.39 µg/mL (≈ 1 µM) in [5]; 0.1 µg/mL (≈ 0.257 µM) against Escherichia coli CI-304. In addition, the MIC in data set [6] came to 0.78 µg/mL (≈ 2 µM); in [7] it was 0.1 µg/mL (≈ 0.257 µM); in [8], 0.1 µg/mL (≈ 0.257 µM); in data set [9], 1.56 µg/mL (≈ 4 µM); in the data set with Enterobacter cloacae 963 it was 0.2 µg/mL (≈ 0.513 µM).

As to `CC1CC(=O)c2c(N3CCNCC3)c(F)cc3c(=O)c(C(=O)O)cn1c23` (stereo not shown) [Compound 1, 9-Fluoro-5-methyl-8-(1-piperazinyl)-6,7-dihydro-1,7-dioxo-1H,5H-benzo[ij]quinolizine-2-carboxylic acid], the MIC is 0.39 µg/mL (≈ 1.09 µM) in [1]; 0.39 µg/mL (≈ 1.09 µM) in data set [2]; 0.1 µg/mL (≈ 0.278 µM) in data set [3]; 3.13 µg/mL (≈ 8.71 µM) in [4]; 0.2 µg/mL (≈ 0.557 µM) in data set [5]; 0.1 µg/mL (≈ 0.278 µM) against Escherichia coli CI-304. Also, the MIC in [6] amounted to 1.56 µg/mL (≈ 4.34 µM); in data set [7] it was 0.39 µg/mL (≈ 1.09 µM); in [8], 0.2 µg/mL (≈ 0.557 µM); in data set [9], 1.56 µg/mL (≈ 4.34 µM); against Enterobacter cloacae 963, 0.78 µg/mL (≈ 2.17 µM).

`CC1CN(c2c(F)cc3c(=O)c(C(=O)O)cn4c3c2C(=O)CC4C)CC(C)N1C.Cl.O` (stereo not shown) [Compound 39, 9-Fluoro-5-methyl-8-(3,4,5-trimethyl-1-piperazinyl) -6,7-dihydro-1,7-dioxo-1H, 5H-benzo[ij]quinolizine-2-carboxylic acid hydrochloride monohydrate]: the MIC turned out to be 0.39 µg/mL in data set [1]; 0.78 µg/mL in data set [2]; 0.1 µg/mL in [3]; 1.56 µg/mL in [4]; 0.39 µg/mL in data set [5]; 0.2 µg/mL in the data set with Escherichia coli CI-304. The MIC in [6] amounted to 3.13 µg/mL; in data set [7], 0.2 µg/mL; in data set [8], 0.2 µg/mL; in [9] it was 0.78 µg/mL; with Enterobacter cloacae 963, 0.39 µg/mL.

Usually MIC stands for the least concentration at which growth counts as inhibited.
